Activity calls are given as the source filed them. No cut-off for these calls is given here.
Key:
[1] = system: Trypanosoma brucei brucei; experiment: Antitrypanosomal activity against Trypanosoma brucei brucei measured after 48 hrs by ATPlite assay; type: functional, organism-based
[2] = system: Trypanosoma brucei brucei; experiment: Antitrypanosomal activity against Trypanosoma brucei brucei measured after 24 hrs by ATPlite assay; type: functional, organism-based
Rhodesain = Rhodesain (Trypanosoma brucei rhodesiense, UniProt Q95PM0); experiment: Inhibition of full length Trypanosoma brucei rhodesiense rhodesain expressed in pichia pastoris using Cbz-Phe-Arg-AMC as substrate measured for 10 mins by fluorometric enzyme assays
[3] = target: Rhodesain (Trypanosoma brucei rhodesiense) (UniProt Q95PM0); experiment: Competitive inhibition of Trypanosoma brucei rhodesiense rhodesain expressed in pichia pastoris using varying concentration of Cbz-Phe-Arg-AMC as substrate by fluorometric enzyme assays
Sequence of Rhodesain (Trypanosoma brucei rhodesiense) (Q95PM0 1-450): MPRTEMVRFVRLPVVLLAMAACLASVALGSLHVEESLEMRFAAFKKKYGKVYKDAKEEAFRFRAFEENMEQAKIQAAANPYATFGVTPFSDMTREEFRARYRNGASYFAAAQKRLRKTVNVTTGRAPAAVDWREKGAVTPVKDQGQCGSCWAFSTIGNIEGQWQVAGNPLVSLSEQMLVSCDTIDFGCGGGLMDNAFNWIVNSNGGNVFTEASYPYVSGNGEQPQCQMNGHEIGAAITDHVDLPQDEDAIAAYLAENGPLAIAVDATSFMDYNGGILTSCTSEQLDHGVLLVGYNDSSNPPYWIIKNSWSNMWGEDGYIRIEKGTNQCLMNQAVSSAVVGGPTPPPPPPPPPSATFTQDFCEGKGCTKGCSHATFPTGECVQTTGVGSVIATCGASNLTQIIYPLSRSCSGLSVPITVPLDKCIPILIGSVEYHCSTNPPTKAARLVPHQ

Sequence of Rhodesain (Q95PM0 whole entry): as the sequence (Q95PM0 1-450) above

| SMILES | EC50 [1] [µM] | EC50 [2] [µM] | Ki (Rhodesain) [µM] | inhibition [3] |
| --- | --- | --- | --- | --- |
| CC(C)C[C@H](NC(=O)c1ccccc1F)C(=O)N[C@H](C#N)CCc1ccccc1 | 32 | 21.1 | 0.032 | – |
| N#C[C@H](CCc1ccccc1)NC(=O)[C@H](Cc1ccccc1)NC(=O)c1cccc(F)c1 | 9.4 | 9.1 | 0.072 | – |
| N#C[C@H](CCc1ccccc1)NC(=O)[C@H](Cc1ccccc1)NC(=O)c1ccccc1F | 11.6 | 10.3 | 0.112 | – |
| CC(C)C[C@H](NC(=O)c1ccc(F)cc1)C(=O)N[C@H](C#N)CCc1ccccc1 | 18.7 | 13.3 | 0.052 | – |
| CC(C)C[C@H](NC(=O)c1c(F)cccc1F)C(=O)N[C@H](C#N)CCc1ccccc1 | 27.1 | 18.6 | 0.052 | – |
| CC(C)C[C@H](NC(=O)c1ccc(F)cc1F)C(=O)N[C@H](C#N)CCc1ccccc1 | 22.5 | 19.3 | 0.066 | – |
| N#C[C@H](CCc1ccccc1)NC(=O)[C@H](Cc1ccccc1)NC(=O)c1c(F)cccc1F | 8.8 | 5.3 | 0.122 | – |
| N#C[C@H](CCc1ccccc1)NC(=O)[C@H](Cc1ccccc1)NC(=O)c1ccc(F)cc1 | 14.5 | 10.6 | 0.07 | – |
| CC(C)C[C@H](NC(=O)c1cccc(F)c1)C(=O)N[C@H](C#N)CCc1ccccc1 | 14.1 | 10.1 | 0.016 | Active |
| N#C[C@H](CCc1ccccc1)NC(=O)[C@H](Cc1ccccc1)NC(=O)c1ccc(F)cc1F | 23.4 | 18.7 | – | – |
